Measured values reported in PubChem BioAssay (NCI).
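Test compounds were applied to cells in 96-well plates for 48 hours at 5 doses. The concentration for full growth arrest is given as TGI.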

What was measured:
Assay in all cases: DTP human tumour cell line panel, 48 h
[1] = tested on: 786-0 renal
[2] = tested on: A498 renal
[3] = tested on: A549 NSCLC
[4] = tested on: ACHN renal
[5] = tested on: BT-549 breast
[6] = tested on: CAKI-1 renal
[7] = tested on: CCRF-CEM leukemia
[8] = tested on: COLO 205 colon
[9] = tested on: DU-145 prostate
[10] = tested on: EKVX NSCLC
[11] = tested on: HCC-2998 colon
[12] = tested on: HCT-116 colon
[13] = tested on: HCT-15 colon
[14] = tested on: HL-60(TB) leukemia
[15] = tested on: HOP-62 NSCLC
[16] = tested on: HOP-92 NSCLC
[17] = tested on: HS 578T breast
[18] = tested on: HT29 colon
[19] = tested on: IGROV1 ovarian
[20] = tested on: K-562 leukemia
[21] = tested on: KM12 colon
[22] = tested on: LOX IMVI melanoma
[23] = tested on: M14 melanoma
[24] = tested on: MALME-3M melanoma
[25] = tested on: MCF7 breast
[26] = tested on: MDA-MB-231 breast
[27] = tested on: MDA-MB-435
[28] = tested on: MDA-N
[29] = tested on: MOLT-4 leukemia
[30] = tested on: NCI-H23 lung
[31] = tested on: NCI-H460 lung
[32] = tested on: NCI-H522 lung
[33] = tested on: NCI/ADR-RES ovarian
[34] = tested on: OVCAR-3 ovarian
[35] = tested on: OVCAR-4 ovarian
[36] = tested on: OVCAR-5 ovarian
[37] = tested on: OVCAR-8 ovarian
[38] = tested on: RPMI-8226 leukemia
[39] = tested on: RXF 393 renal
[40] = tested on: SF-268 CNS
[41] = tested on: SF-295 CNS
[42] = tested on: SK-MEL-2 melanoma
[43] = tested on: SK-MEL-28 melanoma
[44] = tested on: SK-MEL-5 melanoma
[45] = tested on: SK-OV-3 ovarian
[46] = tested on: SN12C renal
[47] = tested on: SNB-19 CNS
[48] = tested on: SNB-75 CNS
[49] = tested on: SR leukemia
[50] = tested on: SW-620 colon
[51] = tested on: T-47D breast
[52] = tested on: TK-10 renal
[53] = tested on: U251 CNS
[54] = tested on: UACC-257 melanoma
[55] = tested on: UACC-62 melanoma
[56] = tested on: UO-31 renal
[57] = tested on: NCI-H226 lung
[58] = tested on: PC-3 prostate

SMILES: CCOC(=O)O/N=C1/C(c2c(O)[nH]c3ccccc23)=Nc2ccccc21
- TGI [1]: 28 µM
- TGI [2]: 16.8 µM
- TGI [3]: 33.1 µM
- TGI [4]: 33.1 µM
- TGI [5]: 31.7 µM
- TGI [6]: 14.5 µM
- TGI [7]: 16.6 µM
- TGI [8]: 28.8 µM
- TGI [9]: 13.3 µM
- TGI [10]: 13.5 µM
- TGI [11]: 6.46 µM
- TGI [12]: 13.6 µM
- TGI [13]: 20.4 µM
- TGI [14]: 24.1 µM
- TGI [15]: 33.9 µM
- TGI [16]: > 100 µM
- TGI [17]: 51.8 µM
- TGI [18]: 46.7 µM
- TGI [19]: 30.9 µM
- TGI [20]: > 100 µM
- TGI [21]: 13.8 µM
- TGI [22]: 26.6 µM
- TGI [23]: 24.2 µM
- TGI [24]: 22.1 µM
- TGI [25]: 18.4 µM
- TGI [26]: 63 µM
- TGI [27]: 17.3 µM
- TGI [28]: 19.3 µM
- TGI [29]: > 100 µM
- TGI [30]: 25.5 µM
- TGI [31]: 15.8 µM
- TGI [32]: 30.2 µM
- TGI [33]: 78.6 µM
- TGI [34]: 8 µM
- TGI [35]: 45.2 µM
- TGI [36]: 56.2 µM
- TGI [37]: 30.8 µM
- TGI [38]: > 100 µM
- TGI [39]: 6.16 µM
- TGI [40]: 68.2 µM
- TGI [41]: 48.8 µM
- TGI [42]: 8.18 µM
- TGI [43]: 41.8 µM
- TGI [44]: 6.99 µM
- TGI [45]: 7.07 µM
- TGI [46]: 23.2 µM
- TGI [47]: 95.1 µM
- TGI [48]: 11.4 µM
- TGI [49]: > 100 µM
- TGI [50]: > 100 µM
- TGI [51]: 25.6 µM
- TGI [52]: 24 µM
- TGI [53]: > 100 µM
- TGI [54]: 24.6 µM
- TGI [55]: 23 µM
- TGI [56]: 40.6 µM

SMILES: COc1cc(C)cc(OC)c1/C=C/C(=O)O
- TGI [1]: > 100 µM
- TGI [2]: > 100 µM
- TGI [3]: > 100 µM
- TGI [4]: > 100 µM
- TGI [5]: > 100 µM
- TGI [6]: > 100 µM
- TGI [10]: > 100 µM
- TGI [11]: > 100 µM
- TGI [12]: > 100 µM
- TGI [13]: > 100 µM
- TGI [14]: > 100 µM
- TGI [15]: > 100 µM
- TGI [16]: > 100 µM
- TGI [17]: > 100 µM
- TGI [18]: > 100 µM
- TGI [19]: > 100 µM
- TGI [20]: > 100 µM
- TGI [21]: > 100 µM
- TGI [22]: > 100 µM
- TGI [23]: > 100 µM
- TGI [24]: > 100 µM
- TGI [26]: > 100 µM
- TGI [27]: > 100 µM
- TGI [28]: > 100 µM
- TGI [29]: > 100 µM
- TGI [57]: > 100 µM
- TGI [30]: > 100 µM
- TGI [31]: > 100 µM
- TGI [32]: > 100 µM
- TGI [33]: > 100 µM
- TGI [34]: 87.6 µM
- TGI [35]: > 100 µM
- TGI [36]: > 100 µM
- TGI [37]: > 100 µM
- TGI [58]: > 100 µM
- TGI [38]: > 100 µM
- TGI [39]: > 100 µM
- TGI [40]: > 100 µM
- TGI [41]: > 100 µM
- TGI [42]: > 100 µM
- TGI [43]: > 100 µM
- TGI [44]: > 100 µM
- TGI [46]: > 100 µM
- TGI [47]: > 100 µM
- TGI [49]: > 100 µM
- TGI [50]: > 100 µM
- TGI [51]: > 100 µM
- TGI [52]: > 100 µM
- TGI [53]: > 100 µM
- TGI [54]: > 100 µM
- TGI [55]: > 100 µM
- TGI [56]: > 100 µM
